Where two headings read alike, the source gives them in different places.
Experiment: Simulated intestinal fluid (SIF) stability in the presence of various enzymes
Type: in vitro ADME
Details: 1 μM
Description: (§1) Studies were carried out in simulated intestinal fluid in the presence of various enzymes. Simulated intestinal fluid was prepared by dissolving 6.8 g of monobasic potassium phosphate in 1.0 L of water. Aliquots of this solution were taken and the pH was adjusted to 6.8. Individual enzymes were then spiked into aliquots for each experiment. A DMSO stock was first prepared for the test article. Aliquots of the DMSO solution were dosed into 700 μL of matrix, which had been pre-warmed to 37° C., at a final test article concentration of 1 μM. […] Samples were stored at 4° C. until the end of the experiment. After the final time point was sampled, the plate was mixed and then centrifuged at 3,000 rpm for 10 minutes. Calibration standards were prepared in matched matrix. […] Analytical conditions are outlined in Appendix 8-1.
as §1, with “10-1.” for “8-1.”
Studies were carried out in simulated intestinal fluid in the presence of various enzymes. Simulated intestinal fluid was prepared by dissolving 6.8 g of monobasic potassium phosphate in 1.0 L of water. Aliquots of this solution were taken and the pH was adjusted to 6.8. Individual enzymes were then spiked into aliquots for each experiment. A DMSO stock was first prepared for test article. Aliquots of the DMSO solution were dosed into 700 μL of matrix, which had been pre-warmed to 37° C., at a final test article concentration of 1 μM. […] Samples were stored at 4° C. until the end of experiment. After final time point was sampled, the plate was mixed and then centrifuged at 3,000 rpm for 10 minutes. Calibration standards were prepared in matched matrix. […] Analytical conditions are outlined in Appendix 13-1.
as §1, with “17-1.” for “8-1.”

[1] = SIF + Carboxypeptidase A, 0 min
[2] = SIF + Carboxypeptidase A, 15 min
[3] = SIF + Carboxypeptidase A, 30 min
[4] = SIF + Carboxypeptidase A, 60 min
[5] = SIF + Carboxypeptidase A, 120 min
[6] = SIF + Carboxypeptidase B, 0 min
[7] = SIF + Carboxypeptidase B, 15 min
[8] = SIF + Carboxypeptidase B, 30 min
[9] = SIF + Carboxypeptidase B, 60 min
[10] = SIF + Carboxypeptidase B, 120 min
[11] = simulated intestinal fluid with carboxypeptidase A, pH 6.8, SIF + Carboxypeptidase A, read-out: Half-life
[12] = simulated intestinal fluid with carboxypeptidase B, pH 6.8, SIF + Carboxypeptidase B, read-out: Half-life
[13] = simulated intestinal fluid with chymotrypsin, pH 6.8, SIF + Chymotrypsin, read-out: Half-life
[14] = simulated intestinal fluid with elastase, pH 6.8, SIF + Elastase, read-out: Half-life
[15] = simulated intestinal fluid with pancreatin, pH 6.8, SIF + Pancreatin, outside the sampled time range, read-out: Half-life, calculated (in parentheses)
[16] = simulated intestinal fluid with pancreatin, pH 6.8, SIF + Pancreatin, read-out: Half-life
[17] = simulated intestinal fluid with trypsin, pH 6.8, SIF + Trypsin, read-out: Half-life

Compound	% Remaining of Initial (n = 1) [1] [%]	% Remaining of Initial (n = 1) [2] [%]	% Remaining of Initial (n = 1) [3] [%]	% Remaining of Initial (n = 1) [4] [%]	% Remaining of Initial (n = 1) [5] [%]	% Remaining of Initial (n = 1) [6] [%]	% Remaining of Initial (n = 1) [7] [%]	% Remaining of Initial (n = 1) [8] [%]	% Remaining of Initial (n = 1) [9] [%]	% Remaining of Initial (n = 1) [10] [%]	% Remaining of Initial (n = 1) (SIF + Chymotrypsin, 0 min) [%]	% Remaining of Initial (n = 1) (SIF + Chymotrypsin, 15 min) [%]	% Remaining of Initial (n = 1) (SIF + Chymotrypsin, 30 min) [%]	% Remaining of Initial (n = 1) (SIF + Chymotrypsin, 60 min) [%]	% Remaining of Initial (n = 1) (SIF + Chymotrypsin, 120 min) [%]	% Remaining of Initial (n = 1) (SIF + Elastase, 0 min) [%]	% Remaining of Initial (n = 1) (SIF + Elastase, 15 min) [%]	% Remaining of Initial (n = 1) (SIF + Elastase, 30 min) [%]	% Remaining of Initial (n = 1) (SIF + Elastase, 60 min) [%]	% Remaining of Initial (n = 1) (SIF + Elastase, 120 min) [%]	further results
CCCCC/C=C\C/C=C\CCCCCCCC(=O)OCC(COC(=O)CCC(=O)OCCNC(=O)CCCCCCCCCCCCCCC)OC(=O)CCCCCCC/C=C\C/C=C\CCCCC (stereo not shown) [Compound I-13]	100	77	53	27	37	100	65	31	14	8.7	100	82	67	45	15	100	41	16	5.6	5.0	% Remaining of Initial (n = 1) (SIF + Pancreatin, 0 min): 100%; % Remaining of Initial (n = 1) (SIF + Pancreatin, 15 min): 1.3%; % Remaining of Initial (n = 1) (SIF + Pancreatin, 30 min): 3.7%; % Remaining of Initial (n = 1) (SIF + Pancreatin, 60 min): 3.4%; % Remaining of Initial (n = 1) (SIF + Pancreatin, 120 min): <1.0%; % Remaining of Initial (n = 1) (SIF + Trypsin, 0 min): 100%; % Remaining of Initial (n = 1) (SIF + Trypsin, 15 min): 78%; % Remaining of Initial (n = 1) (SIF + Trypsin, 30 min): 70%; % Remaining of Initial (n = 1) (SIF + Trypsin, 60 min): 55%; % Remaining of Initial (n = 1) (SIF + Trypsin, 120 min): <1.0%; half-life at 1 μM [11]: 47 min; half-life at 1 μM [12]: 20 min; half-life at 1 μM [13]: 49 min; half-life at 1 μM [14]: 12 min; half-life at 1 μM [15]: 2.5 min; half-life at 1 μM [16]: < 15 min; half-life at 1 μM [17]: 47 min
CCCCCCCCCCCCCCCC(=O)NCCOC(=O)CCC [Compound I-2]	100	79	70	56	43	100	75	54	40	17	100	78	70	60	58	100	61	42	30	28	% Remaining of Initial (n = 1) (SIF + Pancreatin, 0 min): 100%; % Remaining of Initial (n = 1) (SIF + Pancreatin, 15 min): 93%; % Remaining of Initial (n = 1) (SIF + Pancreatin, 30 min): 91%; % Remaining of Initial (n = 1) (SIF + Pancreatin, 60 min): 98%; % Remaining of Initial (n = 1) (SIF + Pancreatin, 120 min): 60%; % Remaining of Initial (n = 1) (SIF + Trypsin, 0 min): 100%; % Remaining of Initial (n = 1) (SIF + Trypsin, 15 min): 82%; % Remaining of Initial (n = 1) (SIF + Trypsin, 30 min): 72%; % Remaining of Initial (n = 1) (SIF + Trypsin, 60 min): 75%; % Remaining of Initial (n = 1) (SIF + Trypsin, 120 min): 46%; half-life at 1 μM [11]: 92 min; half-life at 1 μM [12]: 43 min; half-life at 1 μM (simulated intestinal fluid with chymotrypsin, pH 6.8, SIF + Chymotrypsin, outside the sampled time range, read-out: Half-life, calculated (in parentheses)): 144 min; half-life at 1 μM [13]: > 120 min; half-life at 1 μM [14]: 37 min; half-life at 1 μM [15]: 205 min; half-life at 1 μM [16]: > 120 min; half-life at 1 μM (simulated intestinal fluid with trypsin, pH 6.8, SIF + Trypsin, outside the sampled time range, read-out: Half-life, calculated (in parentheses)): 121 min; half-life at 1 μM [17]: > 120 min
CCCCCCCCCCCCCCCC(=O)NCCOC(=O)CCC(=O)OCC(COC(=O)CCCCCCC)OC(=O)CCCCCCC (stereo not shown) [Compound I-3, PEA-Succinate-Glycerol-Di-Caprylic]	100	76	66	36	20	100	86	77	41	15	100	102	84	61	53	100	94	61	44	29	% Remaining of Initial (n = 1) (SIF + Pancreatin, 0 min): 100%; % Remaining of Initial (n = 1) (SIF + Pancreatin, 15 min): <1.0%; % Remaining of Initial (n = 1) (SIF + Pancreatin, 30 min): <1.0%; % Remaining of Initial (n = 1) (SIF + Pancreatin, 60 min): <1.0%; % Remaining of Initial (n = 1) (SIF + Pancreatin, 120 min): <1.0%; % Remaining of Initial (n = 1) (SIF + Trypsin, 0 min): 100%; % Remaining of Initial (n = 1) (SIF + Trypsin, 15 min): 67%; % Remaining of Initial (n = 1) (SIF + Trypsin, 30 min): 60%; % Remaining of Initial (n = 1) (SIF + Trypsin, 60 min): 55%; % Remaining of Initial (n = 1) (SIF + Trypsin, 120 min): 43%; half-life at 1 μM [11]: 46 min; half-life at 1 μM [12]: 49 min; half-life at 1 μM [13]: 107 min; half-life at 1 μM [14]: 55 min; half-life at 1 μM [16]: < 1 min; half-life at 1 μM [17]: 93 min

— patent US11547681B2, “N-acylethanolamide derivatives and uses thereof” (ELIEM THERAPEUTICS, INC., priority 2016, dated 2023)
